Where a name gives a salt, the structure may show the parent alone.
What was measured:
ddY male mice = test: Anti-hypoxic activity; assay type: in vivo; conditions: 100 mg/kg orally, 30 minutes after administration, gas 4% oxygen / 96% nitrogen at 5 L/minute; for response vs control in vivo at 100 mg/kg: Mus musculus, po, 0.5 h, read-out: Anti-hypoxic activity: (survival time of mouse in administered group)÷(survival time of mouse in control group)×100
Procedure: A test compound (100 mg/kg) dissolved in distilled water is orally administered to ddY male mice of 5-6 weeks age (6-10 heads per group). Thirty minutes after the administration, each mouse was introduced into a glass vessel, and a gas mixture consisting of 4% of oxygen and 96% of nitrogen was passed through the glass vessel at a rate of 5 L/minute. The period of the time from the beginning of sending the gas to the death of the animal was measured.
To the control group, only distilled water was orally given. Anti-hypoxic activity of test compound was calculated according to the following equation:
(Survival time of mouse in administered group)÷(Survival time of mouse in control group)×100(%)

Row | Compound | melting point | further results
1 | CCN(CC)CCOCCc1cc2ccsc2cc1F [Example 31, N,N-diethyl-N-{2-[2-(6-fluorobenzo[b]thiophen-5-yl)ethoxy]ethyl}amine oxalate] |  | response vs control in vivo at 100 mg/kg (ddY male mice): 248%
2 | CN(C)CCOCCc1ccc2c(c1)OCO2.O=C(O)C(=O)O | 109 to 112 °C | 
3 | CN(C)CCOCCc1cc2ccsc2cc1Cl.Cl | 105 to 108 °C | 
4 | CC(O)CN(C)CCOCCc1ccc2sccc2c1 (stereo not shown) [Example 144, 1-{[2-(2-Benzo[b]thiophen-5-ylethoxy)ethyl]-(methyl)amino}-2-propanol oxalate] |  | response vs control in vivo at 100 mg/kg (ddY male mice): 250%
5 | CCN(CC)CCOCCc1c(F)ccc2ccsc12.Cl | 71 to 73.5 °C | 
6 | CN(C)CCN(C)CCOCCc1ccc2sccc2c1.Cl.Cl | 228 to 230 °C | 
7 | C#CCN(C)CCOCCc1ccc2sccc2c1.Cl [Example 70, N-[2-(2-benzo[b]thiophen-5-ylethoxy)ethyl]-N-methyl-N-(2-pripynyl)amine hydrochloride] |  | Anti-hypoxic activity: (survival time of mouse in administered group)÷(survival time of mouse in control group)×100 (ddY male mice): 213%
8 | CCN(CC)CCOCCc1cc2occc2cc1OC.Cl | 90 to 92 °C | 
9 | CCC(Cc1ccc2sccc2c1)OCCN(CC)CC.Cl (stereo not shown) | 84.5 to 87 °C | 
10 | CCN(C)CCOCCc1ccc2sccc2c1 [Example 102, N-[2-(2-Benzo[b]thiophen-5-ylethoxy)ethyl]-N-ethyl-N-methylamine oxalate] |  | response vs control in vivo at 100 mg/kg (ddY male mice): 210%
11 | CN(C)CCOCCc1ccc2sccc2c1Cl.Cl | 92 to 95 °C | 
12 | CN(C)CCOCCc1cccc2ccccc12.Cl | 183 to 184 °C | 
13 | CCN(CCO)CCOCCc1ccc2sccc2c1.O=C(O)C(=O)O | 53 to 56 °C | 
14 | CN(CCO)CCOCCc1ccc2sc(F)cc2c1.O=C(O)C(=O)O | 77 to 80 °C | 
15 | CN(C)CCOCCc1ccc2ccccc2c1.Cl | 105 to 107 °C | 
16 | CCCN(CCC)CCOCCc1ccc2sccc2c1.O=C(O)C(=O)O | 93 to 98 °C | 
17 | Cc1cc2cc(CCOCCN(C)CCO)ccc2s1.O=C(O)C(=O)O | 73 to 75 °C | 
18 | CN(CCOCCc1ccc2sccc2c1)Cc1ccc(F)cc1.O=C(O)C(=O)O | 149 to 150.5 °C | 
19 | O=C(O)C(=O)O.OCCN(CCOCCc1ccc2sccc2c1)Cc1ccccc1 | 104 to 105.5 °C | 
20 | CCN(CC)CCOCCc1ccc2sc(C)cc2c1.O=C(O)C(=O)O | 96 to 98 °C | 
21 | CN(CCO)CCCCCOCCc1ccc2sccc2c1.O=C(O)C(=O)O | 78.5 to 80.5 °C | 

Row | Compound | melting point | further results
22 | C#CCN(CCOCCc1ccc2sccc2c1)Cc1ccccc1.O=C(O)C(=O)O | 107 to 108 °C | 
23 | CN(CCOCCc1ccc2sccc2c1)CCOC(=O)C(C)(C)C.Cl | 118 to 119 °C | 
24 | CCN(CC)CCCCCc1ccc2sccc2c1.O=C(O)C(=O)O | 58 to 60 °C | 
25 | CCN(CC)CCOCCc1ccc2occc2c1 [Example 13, N-[2-(2-Benzo[b]furan-5-ylethoxy)ethyl]-N,N-diethylamine oxalate] |  | response vs control in vivo at 100 mg/kg (ddY male mice): 160%
26 | CCN(CC)CCOCCc1cccc2ccccc12 [Example 49, N,N-diethyl-N-{2-[2-(1-naphthyl)ethoxy]ethyl}-amine oxalate] |  | response vs control in vivo at 100 mg/kg (ddY male mice): 173%
27 | COc1cc2sccc2cc1CCOCCN(C)C [Example 53, N,N-Dimethyl-N-{2-[2-(6-methoxybenzo[b]thiophen-5-yl)ethoxy]ethyl}-amine hydrochloride] |  | response vs control in vivo at 100 mg/kg (ddY male mice): 200%
28 | CN(C)CCOCCc1ccc2sccc2c1F.O=C(O)C(=O)O | 118 to 121 °C | 
29 | CCN(CC)CCOCCc1cccc2sccc12.O=C(O)C(=O)O | 79 to 82 °C | 
30 | CN(CCOCCc1ccc2sccc2c1)CCOC(=O)c1ccccc1.Cl | 97 to 98 °C | 
31 | CC(C)N(CCOCCc1ccc2sccc2c1)C(C)C.Cl | 78 to 79 °C | 
32 | CC(COCCc1ccc2sccc2c1)N(C)CCO.O=C(O)C(=O)O (stereo not shown) | 72 to 74 °C | 
33 | CN(C)CCOCCc1cccc2sccc12.Cl | 165 to 167 °C | 
34 | CCOC(=O)OCCN(C)CCOCCc1ccc2sccc2c1.Cl | 73.5 to 76 °C | 
35 | CN(C)CCOCCc1cccc2ccsc12.Cl | 130 to 132 °C | 
36 | CCN(CC)CCCCCOCCc1ccc2sccc2c1.Cl | 138.5 to 140 °C | 
37 | CCN(CC)CCOCCc1cc2ccsc2cc1OC.O=C(O)C(=O)O | 80 to 83 °C | 
38 | CN(CCOCCc1cc2ccsc2cc1F)Cc1ccccc1.O=C(O)C(=O)O | 96 to 98 °C | 
39 | CN(CCOCCc1ccc2sccc2c1)Cc1ccc([N+](=O)[O-])cc1.O=C(O)C(=O)O | 112 to 114 °C | 
40 | CN(CCO)CCOCCc1cccc2ccsc12.Cl | 74 to 76 °C | 
41 | CCN(CC)CCOCCc1c(F)cc2ccsc2c1F.Cl | 98 to 100 °C | 
42 | CCN(CC)CCOCCc1ccc2ccsc2c1 [Example 101, N-[2-(2-Benzo[b]thiophen-6-ylethoxy)ethyl]-N,N-diethylamine oxalate] |  | response vs control in vivo at 100 mg/kg (ddY male mice): 187%

Row | Compound | melting point | further results
43 | CN(CCOCCc1ccc2sccc2c1)C1CC1 [Example 158, N-[2-(2-benzo[b]thiophen-5-ylethoxy)ethyl]-N-cyclopropyl-N-methylamine hydrochloride] |  | response vs control in vivo at 100 mg/kg (ddY male mice): 179%
44 | CCN(CC)CCOCCc1cccc2ccsc12.O=C(O)C(=O)O | 75 to 76 °C | 
45 | CCN(CC)CCOCCc1ccc2sc(C(=O)O)cc2c1.Cl | 148 to 150 °C | 
46 | CN(CCO)CCOCCc1c(F)ccc2ccsc12.Cl | 69 to 72 °C | 
47 | CN(CCCO)CCOCCc1ccc2sccc2c1.O=C(O)C(=O)O | 93 to 95 °C | 
48 | CCN(CC)CCOCCc1ccc2ncccc2c1.O=C(O)C(=O)O | 90 to 92 °C | 
49 | COc1ccc2cc(CCOCCN(C)C)ccc2c1.Cl | 125 to 128 °C | 
50 | COc1ccc(CN(C)CCOCCc2ccc3sccc3c2)cc1.O=C(O)C(=O)O | 78.5 to 81 °C | 
51 | CN(C)CCOCCc1cc2ccsc2cc1F.O=C(O)C(=O)O | 120 to 126 °C | 
52 | CN(C)CCOCCc1ccc(F)c2ccsc12.Cl | 67 to 69 °C | 
53 | CN(CCO)CCOCCc1cc2ccsc2cc1F.O=C(O)C(=O)O | 96 to 99 °C | 
54 | CN(C)CCOCCc1ccc2occc2c1.O=C(O)C(=O)O | 101 to 103 °C | 
55 | CCN(CC)CCOCCc1ccc2ccccc2c1.O=C(O)C(=O)O | 67 to 72 °C | 
56 | CCN(CC)CCOCCc1ccc2occc(=O)c2c1.Cl | 173 to 176 °C | 
57 | CCN(CC)CCCOCCc1ccc2sccc2c1.O=C(O)C(=O)O | 87.5 to 89 °C | 
58 | CCN(CC)CCOCCc1ccc2c(c1)OCO2 [Example 25, N-{2-[2-(1,3-benzodioxol-5-yl)ethoxy]ethyl}-N,N-diethylamine] | 83 to 84 °C | 
59 | CN(C)CCOCCc1ccc2sc(-c3ccccc3)cc2c1.Cl | 170 to 172 °C | 
60 | C#CCN(CC)CCOCCc1ccc2sccc2c1.Cl | 115 to 123 °C | 
61 | CC(CO)N(C)CCOCCc1ccc2sccc2c1.O=C(O)C(=O)O (stereo not shown) | 97 to 99 °C | 
